From publication PMC4681449 (Molecular microbiology, 2015)

Target: CjArsP (Campylobacter jejuni, UniProt B5LWZ8)
Format: biochemical

Chain of CjArsP (B5LWZ8 1-315): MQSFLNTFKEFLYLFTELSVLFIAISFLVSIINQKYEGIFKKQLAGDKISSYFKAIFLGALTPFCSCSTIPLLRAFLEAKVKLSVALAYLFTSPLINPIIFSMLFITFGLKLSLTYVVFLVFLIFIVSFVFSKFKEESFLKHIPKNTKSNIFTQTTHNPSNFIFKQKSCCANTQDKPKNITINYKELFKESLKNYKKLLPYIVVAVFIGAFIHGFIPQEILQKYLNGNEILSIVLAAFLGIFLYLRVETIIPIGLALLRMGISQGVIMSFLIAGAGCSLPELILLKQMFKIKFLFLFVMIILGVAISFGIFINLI

## C[As](O)O [MAs(III), methylarsenite]
  uptake into everted membrane vesicles, As by ICP-MS: Everted membrane vesicles from cells expressing CjarsP accumulated MAs(III) when NADH was supplied
